Where two headings read alike, the source gives them in different places.
Columns and labels:
[1] = target: T1, C1b domain of human PKCδ (Homo sapiens, UniProt Q05655); test: Competitive 3H-PDBu binding to C1b domain of PKCδ; conditions: 3H-PDBu competition
T1 construct: Genes encoding C1b domains of human PKCα, δ, ε, θ, and PKD1 (PKCμ) were synthesized; made in house; host or cells: E. coli BL21(DE3)
Procedure, shortened: (§1)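 Affinity was measured by competition with the radiotracer 3H-PDBu for recombinant human GST-C1b fusion proteins expressed in E. coli BL21(DE3). Incubation ran 10 minutes at 37° C with shaking, then 20 minutes on ice, and filter-trapped 3H-PDBu was counted by scintillation. IC50 values were converted to Ki by Cheng-Prusoff using the experimentally determined Kd for each protein preparation.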

[2] = target: T2, C1b domain of human PKCα (Homo sapiens, UniProt P17252); test: biochemical; type: binding; conditions: 3H-PDBu competition
T2 construct: Genes encoding C1b domains of human PKCα, δ, ε, θ, and PKD1 (PKCμ) were synthesized; made in house; host or cells: E. coli BL21(DE3)
Procedure, shortened: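 Competitive binding against 3H-PDBu tracer used recombinant GST-C1b fusion protein expressed in E. coli. Incubation ran 10 min at 37°C with shaking, then 20 min on ice, followed by filtration and scintillation counting of trapped 3H-PDBu. Affinity was derived using each protein preparation's experimentally determined Kd for 3H-PDBu.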

[3] = target: T3, C1b domain of human PKD1 (PKCμ) (Homo sapiens, UniProt Q15139); test: biochemical; type: binding
T3 construct: Genes encoding C1b domains of human PKCα, δ, ε, θ, and PKD1 (PKCμ) were synthesized; made in house; host or cells: E. coli BL21(DE3)
T3 sequence (Q15139 270-320 limits assumed): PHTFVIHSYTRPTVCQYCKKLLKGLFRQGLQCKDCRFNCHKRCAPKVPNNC
Procedure, shortened: as §1

[4] = test system: phosphorylation of PKCμ, PKCδ and Erk1/2 in A549 lung cancer cells; type: cell-based; conditions: 30 minutes
Description: Cells were then treated with different drugs at indicated concentrations for 30 minutes. […] Imagequant LAS4000 (GE) was used to scan membranes if secondary antibodies anti-mouse IgG HRP conjugate or anti-rabbit IgG HRP conjugate (dilutions from 1:2000-1:10000) were used. For ProteinSimple Wes system, manufacture's procedure was followed (ProteinSimple 12-230 kDa Wes Separation Module) for sample preparation, loading, running, and data analysis.
Phosphorylation of these sites has been linked to acute activation or catalytic activity of the PKC isoforms and Erk1/2. High level of phosphorylation indicates strong activation.

[5] = test system: A549 non-small cell lung cancer cell line; test: Proliferation of A549 (CellTiter Glo); type: cell-based; conditions: read-out: IC50 μM (A549 Cell Line)
Procedure, shortened: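 A549 cells (K-Ras mutant) seeded 1,000/well, 24 h at 37° C, then treated with 3-fold serial dilutions (final DMSO ≤0.25%) for 96 h. Viability by CellTiter Glo luminescence; % inhibition vs DMSO-only Max, curve-fit to give IC50, relative IC50 and % top inhibition.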

[6] = target: T4, C1b domain of human PKCθ (Homo sapiens, UniProt Q04759); test: Competitive 3H-PDBu binding to C1b domain of PKCθ
T4 construct: Genes encoding C1b domains of human PKCα, δ, ε, θ, and PKD1 (PKCμ) were synthesized; made in house; host or cells: E. coli BL21(DE3)
T4 sequence (Q04759 231-281 limits assumed): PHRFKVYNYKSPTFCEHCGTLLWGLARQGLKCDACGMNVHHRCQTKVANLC
Description: (§2) Compounds described in this disclosure were tested for binding affinity to C1b domain of PKC isoforms. Compound binding affinity to C1b domain of PKC isoforms was derived from competitive binding assay using radioactive tracer ^3H-PDBu and recombinant GST-C1b or full-length of human PKC proteins based on modified procedures from Methods in Molecular Biology, vol.
(§3) Genes encoding C1b domains of human PKCα, δ, ε, θ, and PKD1 (PKCμ) were synthesized and inserted into pGEX-2TK or pGEX-4T1 vectors for expression and production of GST-C1b proteins in E. coli BL21(DE3) via IPTG induction. The target proteins were purified by glutathione sepharose 4B and followed by ion exchange chromatography if needed to achieve purity >70%. Aliquots of the purified proteins were stored at −80 degree for binding assay (storage buffer: 20 mM Tris pH 8.0, 200 mM NaCl, 10% glycerol, 1 mM DTT).
(§4) The plate was incubated at 37° C. on a shaker at 300 rpm for 10 minutes and then put on ice for 20 minutes. […] The bottom of the filter plate was sealed and 50 μL of MicroScint-20 (PerkinElmer) cocktail was added to each well. ^3H-PDBu trapped in each well was counted using PerkinElmer MicroBeta2 Reader. Data were analyzed using GraphPad Prism5 with the model “log(inhibitor) vs. response-variable slope” to fit the IC50, and then IC50 was transformed to Ki using Cheng-Prusoff equation: Ki=IC50/(1+added radio ligand/Kd). Kd is the binding affinity of each protein preparation to ^3H-PDBu, determined experimentally.

[7] = target: T5, C1b domain of human PKCε (Homo sapiens, UniProt Q02156); test: Competitive 3H-PDBu binding to C1b domain of PKCε
T5 construct: Genes encoding C1b domains of human PKCα, δ, ε, θ, and PKD1 (PKCμ) were synthesized; made in house; host or cells: E. coli BL21(DE3)
Description: as §2, §3, §4

[8] = test system: Panc2.13 (Pancreatic) cell line; test: Proliferation of Panc2.13; type: cell-based; conditions: for ratio of (IC50 of K01)/(IC50 of compound), Panc2.13: value in parenthesis; for IC50: read-out: IC50 in μM Panc2.13 (Pancreatic)
Description: (§5) The diterpenoid compounds were tested in A549, a non-small cell lung cancer cell line harboring a K-Ras activating mutation. Briefly, A549 cells at a density of 1,000 cells/well were seeded in 96-well plates and incubated at 37° C. for 24 hours. A series of different concentrations of compound stocks (500×) were prepared by 3-fold serial dilution in DMSO. These compounds were further diluted in culture media and then added to cells so that the final DMSO concentration was not exceeding 0.25%. After 96 hours of incubation, 50 μL of CellTiter Glo reagent (Promega) was added to each well and luminescence was measured after 10 minutes using EnVision (PerkinElmer). Luminescence from cells treated with DMSO alone was set as Max and % of inhibition was calculated as follows: Inhibition %=(Max−Sample value)/Max×100. Data was analyzed using XL-fit software (ID Business Solutions Ltd.) and IC50, relative IC50, and % of top inhibition was calculated. Some of the compounds in this disclosure were very potent in blocking proliferation of A549 lung cancer cells at low nM range. In addition, potency of inhibiting A549 proliferation correlated well with its binding affinity to PKCs for this series of compounds. In other words, higher affinity binders had stronger inhibitory effects on A549 proliferation. This further support the notion that activation, rather than inhibition, of certain PKC isoforms is required to block proliferation of cancer cells, some of which may harbor K-Ras mutations. This is in sharp contrast to previous literature and common belief that inhibition of PKC is necessary to block cancer cell growth (Kang, 2014, New Journal of Science, 2014:1-36). Data presented here is in agreement with recent findings that many loss-of-function but not gain-of-function mutations of PKC isoforms have been identified in many human cancers (Antal et al., 2015, Cell, 160:489-502).
(§6) The compounds in this disclosure were tested for their potency in blocking proliferation of a few other cancer cells lines, including K-Ras mutant pancreatic cell lines Panc2.13 and KP-4, leukemia cell line HL-60, and lymphoma cell lines Namalwa and Mino. Similar procedures as in Example 67 were followed. Initial cell numbers seeded in 96-well plates were different for different cell lines: 3000 cells/well for Panc2.13; 800-1000 cells/well for KP-4; 5000 cells/well for HL-60; 5000-10000 cells/well for Namalwa and Mino. A ratio ratio of (IC50 of K01)/(IC50 of compound) (data in parenthesis in Table 5) was used to normalize the compound potency from different assay batches to a common comparator […].

[9] = test system: KP-4 (Pancreatic) cell line; test: Proliferation of KP-4; type: cell-based
Description: as §5, §6

[10] = test system: HL-60 (Leukemia) cell line; test: Proliferation of HL-60; type: cell-based; conditions: for ratio of (IC50 of K01)/(IC50 of compound), HL-60: value in parenthesis
Description: as §5, §6

[11] = test system: Namalwa (Lymphoma) cell line; test: Proliferation of Namalwa; type: cell-based; conditions: for ratio of (IC50 of K01)/(IC50 of compound), Namalwa: value in parenthesis; for IC50: read-out: IC50 in μM Namalwa (Lymphoma)
Description: as §5, §6

[12] = test system: Mino (Lymphoma) cell line; test: Proliferation of Mino; type: cell-based; conditions: for IC50: read-out: IC50 in μM Mino (Lymphoma); for ratio of (IC50 of K01)/(IC50 of compound), Mino: value in parenthesis
Description: as §5, §6

[13] = Homo sapiens, HL-60, read-out: IC50 in μM HL-60 (Leukemia)

T1 sequence (Q05655 230-280 limits assumed): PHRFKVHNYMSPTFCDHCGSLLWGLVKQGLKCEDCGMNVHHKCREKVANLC
T5 sequence (Q02156 242-292 limits assumed): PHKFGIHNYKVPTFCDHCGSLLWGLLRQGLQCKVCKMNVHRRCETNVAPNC

Row | SMILES | Ki ([1]; Ki PKCδ) [nM] | Ki ([2]; Ki PKCα) [nM] | Ki [3] [nM] | phosphorylation of PKC (PKD/PKCμ), PKCδ and Erk1/2 ([4]; 3 μM, Western blot) | IC50 ([5]; Homo sapiens, A549, 96 h) [µM] | ratio of (IC50 of K01)/(IC50 of compound), HL-60 ([10]; HL-60) | ratio of (IC50 of K01)/(IC50 of compound), Namalwa ([11]; Namalwa) | ratio of (IC50 of K01)/(IC50 of compound), Mino ([12]; Mino) | further results
1 | CC1=C[C@H]2[C@@]3(O)[C@H](C)C[C@]4(OC(=O)CCc5ccncc5)[C@H]([C@@H]3C=C(CO)C[C@]2(O)C1=O)C4(C)C [Compound K101-C1315] | 100 to 200 | > 8000 | 30 to 60 | induced phosphorylation | 1 to 2 | – | – | – | –
2 | CC1=C[C@H]2[C@@]3(O)[C@H](C)C[C@]4(OC(=O)CCc5ccccn5)[C@H]([C@@H]3C=C(CO)C[C@]2(O)C1=O)C4(C)C [Compound K101-C1316] | 100 to 200 | 6000 to 8000 | 30 to 60 | induced phosphorylation | 0.6 to 1 | – | – | – | –
3 | CC/C=C\C/C=C\C/C=C\C/C=C\C/C=C\C/C=C\CCC(=O)O[C@@]12C[C@@H](C)[C@@]3(O)[C@@H](C=C(CO)C[C@]4(O)C(=O)C(C)=C[C@@H]34)[C@@H]1C2(C)C [Compound K101-C1333] | < 5 | – | < 5 | – | 0.001 to 0.01 | 80 | 20.9 | 82.5 | Ki PKCα [2]: E (E=>60 nM and ≤10 nM); Ki [6]: < 5 nM; Ki [7]: 1 to 30 nM; ratio of (IC50 of K01)/(IC50 of compound), Panc2.13 ([8]; Panc2.13): 157; IC50 [8]: 0.001 to 0.01 µM; IC50 ([9]; Homo sapiens, KP-4, read-out: IC50 in μM KP-4 (Pancreatic)): 0.001 to 0.01 µM; IC50 [10, 13]: 0.001 to 0.01 µM; IC50 [11]: 0.001 to 0.01 µM; IC50 ([12]; Homo sapiens, MINO): < 0.001 µM
4 | CC1=C[C@H]2[C@@]3(O)[C@H](C)C[C@]4(OC(=O)[C@@H](N)Cc5ccccc5)[C@H]([C@@H]3C=C(CO)C[C@]2(O)C1=O)C4(C)C [Compound K101-C1303] | – | – | – | induced phosphorylation | – | 0.9 | 0.19 | 0.57 | Ki ([1]; read-out: Ki PKCδ): 30 to 60 nM; Ki ([2]; read-out: Ki PKCα): 400 to 800 nM; Ki ([6]; C1b domain of human PKCθ, 3H-PDBu competition, read-out: Ki PKCθ): 30 to 60 nM; Ki ([7]; C1b domain of human PKCε, 3H-PDBu competition, read-out: Ki PKCε): 100 to 200 nM; Ki ([3]; C1b domain of human PKD1 (PKCμ), 3H-PDBu competition, read-out: Ki PKD1/PKCμ): 1 to 30 nM; IC50 ([5]; A549, 96 hours incubation, CellTiter Glo): 0.6 to 1 µM; IC50 ([8]; Panc2.13): 1 to 2 µM; ratio of (IC50 of K01)/(IC50 of compound), Panc2.13 ([8]; Panc2.13): 0.75; IC50 ([9]; KP-4, read-out: IC50 in μM KP-4 (Pancreatic)): 0.6 to 1 µM; IC50 ([10]; HL-60, read-out: IC50 in μM HL-60 (Leukemia)): 0.2 to 0.6 µM; IC50 ([11]; Namalwa): 0.2 to 0.6 µM; IC50 ([12]; Mino): 0.1 to 0.2 µM
5 | CC1=C[C@H]2[C@@]3(O)[C@H](C)C[C@]4(OC(=O)[C@H](N)CC5CCCCC5)[C@H]([C@@H]3C=C(CO)C[C@]2(O)C1=O)C4(C)C [Compound K101-C1337] | 1 to 30 | 1000 to 2000 | 5 to 10 | – | 0.2 to 0.6 | – | – | – | phosphorylation of PKC (PKD/PKCμ), PKCδ and Erk1/2 ([4]; Western blot, concentration not given, compared with enantiomer K101-C1327): induced much lower levels of phosphorylation
6 | CC1=C[C@H]2[C@@]3(O)[C@H](C)C[C@]4(OC(=O)CCc5ncc(-c6ccc(Cl)cc6)o5)[C@H]([C@@H]3C=C(CO)C[C@]2(O)C1=O)C4(C)C [Compound K101-C1321] | < 5 | – | < 5 | – | 0.03 to 0.06 | 5.71 | 1.15 | 5.36 | Ki PKCα [2]: E (E=>60 nM and ≤10 nM); phosphorylation of PKC (PKD/PKCμ), PKCδ and Erk1/2 ([4]; 0.3 μM, Western blot (FIG. 1)): induced high levels of phosphorylation; IC50 [10, 13]: 0.06 to 0.1 µM; IC50 [11]: 0.03 to 0.06 µM; IC50 ([12]; Homo sapiens, MINO): 0.01 to 0.03 µM
7 | CC1=C[C@H]2[C@@]3(O)[C@H](C)C[C@]4(OC(=O)[C@H](N)Cc5ccccc5)[C@H]([C@@H]3C=C(CO)C[C@]2(O)C1=O)C4(C)C [Compound K101-C1336] | 100 to 200 | 2000 to 4000 | 30 to 60 | induced phosphorylation | 1 to 2 | – | – | – | –
